Data from patent USRE39591E1, “6-O-substituted ketolides having antibacterial activity” (Abbott Laboratories, priority 1996, dated 2007).

Tested on: up to 32 different microorganisms
Assay: in vitro antibacterial activity (MIC), agar dilution on Brain Heart Infusion (BHI) agar with Steers replicator
Format: cell-based
Conditions: unit assumed
Outline: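 Agar dilution MIC: twelve successive compound dilutions in BHI agar, spot-inoculated with 1:100 (1:10 for slow growers) organism dilutions by Steers replicator, incubated 35-37° C for 20-24 h. MIC is lowest concentration showing no growth, slight haze or sparse colonies versus drug-free control; erythromycin A as class reference.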

Row | Structure (SMILES) | MIC (organism code AA) [µg/mL] | MIC (organism code BB) [µg/mL] | MIC (organism code CC) [µg/mL] | MIC (organism code DD) [µg/mL] | MIC (organism code EE) [µg/mL] | MIC (organism code FF) [µg/mL] | MIC (organism code GG) [µg/mL] | MIC (organism code HH) [µg/mL] | MIC (organism code II) [µg/mL] | MIC (organism code JJ) [µg/mL] | MIC (organism code KK) [µg/mL] | MIC (organism code LL) [µg/mL] | MIC (organism code MM) [µg/mL] | MIC (organism code NN) [µg/mL] | MIC (organism code OO) [µg/mL] | MIC (organism code PP) [µg/mL] | MIC (organism code QQ) [µg/mL] | MIC (organism code RR) [µg/mL] | MIC (organism code SS) [µg/mL] | MIC (organism code TT) [µg/mL] | further results
1 | CCC1OC(=O)C(C)C(=O)C(C)C(OC2OC(C)CC(N(C)C)C2O)C(C)(OCc2cccc(I)c2)CC(C)C(=O)C(C)C2NC(=O)OC12C (stereo not drawn) [Example 285, Compound of Formula (IX): L is CO, T is NH2, R is —CH2-(3-iodophenyl)] | 3.1 | 3.1 | > 100 | 3.1 | 3.1 | 3.1 | > 100 | 3.1 | 0.39 | 0.2 | 0.2 | 0.05 | 100 | 0.78 | 0.39 | 0.39 | > 100 | 12.5 | > 100 | > 100 | MIC (organism code UU): 6.2 µg/mL; MIC (organism code VV): 1.56 µg/mL; MIC (organism code WW): > 128 µg/mL; MIC (organism code XX): 0.25 µg/mL; MIC (organism code YY): 0.25 µg/mL; MIC (organism code ZZ): 64 µg/mL; MIC (organism code ZZA): 1 µg/mL
2 | CCC1OC(=O)C(C)C(=O)C(C)C(OC2OC(C)CC(N(C)C)C2O)C(C)(OCC=Cc2ccc3cc(O)ccc3c2)CC(C)C(=O)C(C)C2NC(=O)OC12C (stereo not drawn) [Example 287, Compound of Formula (IX): L is CO, T is NH2, R is —CH2CH═CH-(6-hydroxy-2-naphthyl)] | 0.1 | 0.1 | > 100 | 0.1 | 0.1 | 0.02 | > 100 | 0.1 | 0.05 | 0.02 | 0.02 | 0.02 | 3.1 | 0.1 | 0.02 | 0.2 | 50 | 0.39 | > 100 | > 100 | MIC (organism code UU): 0.39 µg/mL; MIC (organism code VV): 0.05 µg/mL; MIC (organism code WW): 2 µg/mL; MIC (organism code XX): 0.03 µg/mL; MIC (organism code YY): 0.03 µg/mL; MIC (organism code ZZ): 4 µg/mL; MIC (organism code ZZA): 0.5 µg/mL
3 | CCC1OC(=O)C(C)C(=O)C(C)C(OC2OC(C)CC(N(C)C)C2O)C(C)(OCC=Cc2ccc3cc(OCCBr)ccc3c2)CC(C)C(=O)C(C)C2NC(=O)OC12C (stereo not drawn) [Example 288, Compound of Formula (IX): L is CO, T is NH2, R is —CH2CH═CH-(6-(2-bromoethoxy)-2-naphthyl)] | 0.1 | 0.2 | > 100 | 0.39 | 0.39 | 0.39 | 100 | 0.39 | 0.39 | 0.01 | 0.02 | 0.1 | 12.5 | 0.39 | 0.02 | 0.39 | > 100 | 3.1 | > 100 | > 100 | MIC (organism code UU): 0.39 µg/mL; MIC (organism code VV): 0.39 µg/mL; MIC (organism code WW): 8 µg/mL; MIC (organism code XX): 0.125 µg/mL; MIC (organism code YY): 0.125 µg/mL; MIC (organism code ZZ): 16 µg/mL; MIC (organism code ZZA): 1 µg/mL
4 | CCC1OC(=O)C(C)C(=O)C(C)C(OC2OC(C)CC(N(C)C)C2O)C(C)(OCC#CC=Cc2ccccc2)CC(C)C(=O)C(C)C2NC(=O)OC12C (stereo not drawn) [Example 291, Compound of Formula (IX): L is CO, T is NH, R is —CH2C≡C-(2-phenylethenyl)] | 0.05 | 0.05 | > 100 | 0.05 | 0.05 | 0.05 | > 100 | 0.05 | 0.02 | ≤ 0.005 | ≤ 0.005 | ≤ 0.005 | 3.1 | 0.1 | ≤ 0.005 | 0.05 | 25 | 0.1 | 50 | > 100 | MIC (organism code UU): 0.39 µg/mL; MIC (organism code VV): 0.01 µg/mL; MIC (organism code WW): 2 µg/mL; MIC (organism code XX): ≤ 0.004 µg/mL; MIC (organism code YY): ≤ 0.004 µg/mL; MIC (organism code ZZ): 1 µg/mL; MIC (organism code ZZA): 0.125 µg/mL
5 | CCC1OC(=O)C(C)C(=O)C(C)C(OC2OC(C)CC(N(C)C)C2O)C(C)(OCC=Cc2ccc(-c3ccon3)s2)CC(C)C(=O)C(C)C2NC(=O)OC12C (stereo not drawn) [Example 292, Compound of Formula (IX): L is CO, T is NH, R is —CH2CH═CH-(5-(3-ixoxazolyl)-2-thiophenyl)] | 0.1 | 0.1 | > 100 | 0.1 | 0.1 | 0.1 | > 100 | 0.05 | 0.02 | ≤ 0.005 | 0.02 | 0.01 | 12.5 | 0.05 | 0.02 | 0.1 | 50 | 0.2 | 100 | > 100 | MIC (organism code UU): 0.78 µg/mL; MIC (organism code VV): 0.02 µg/mL; MIC (organism code WW): 2 µg/mL; MIC (organism code XX): 0.03 µg/mL; MIC (organism code YY): 0.03 µg/mL; MIC (organism code ZZ): 16 µg/mL; MIC (organism code ZZA): 0.25 µg/mL
6 | CCC1OC(=O)C(C)C(=O)C(C)C(OC2OC(C)CC(N(C)C)C2O)C(C)(OCC=Cc2cn(C)c(=O)n(C)c2=O)CC(C)C(=O)C(C)C2NC(=O)OC12C (stereo not drawn) [Example 293, Compound of Formula (IX): L is CO, T is NH, R is —CH2—CH═CH-(1,3-dimethyl-2,4-dioxo-5-pyrimidinyl)] | 0.39 | 0.39 | > 100 | 0.39 | 0.39 | 0.39 | > 100 | 0.39 | 0.1 | 0.02 | 0.05 | 0.02 | > 100 | 0.78 | 0.05 | 0.2 | > 100 | 0.78 | > 100 | > 100 | MIC (organism code UU): 12.5 µg/mL; MIC (organism code VV): 0.78 µg/mL; MIC (organism code WW): 16 µg/mL; MIC (organism code XX): 0.03 µg/mL; MIC (organism code YY): 0.03 µg/mL; MIC (organism code ZZ): > 128 µg/mL; MIC (organism code ZZA): 0.5 µg/mL
